{
  "source": "patent US4061542A",
  "about": "“2-Methyl-L-arginine produced by cultivating streptomyces strain” (Hoffmann-La Roche Inc., priority 1976, dated 1977)",
  "key": {"[1]": {"test": "Acute toxicity (LD50) in mice", "assay_type": "in vivo", "details": "mouse, in vivo, mice"}, "[2]": {"tested_on": "spermidine production", "details": "in words; comparison substance; cited from earlier work"}, "[3]": {"tested_on": "ornithine decarboxylase", "details": "in words; comparison substance; cited from earlier work"}, "[4]": {"tested_on": "males", "details": "administered to males; comparison substance; cited from earlier work"}, "[5]": {"tested_on": "spermidine production", "test": "Suppression of spermidine production", "details": "in words; no test data given"}, "[6]": {"tested_on": "males", "test": "Anti-fertility activity when administered to males", "assay_type": "in vivo", "details": "in words, no test data given"}, "[7]": {"tested_on": "ornithine decarboxylase", "test": "Inhibition of ornithine decarboxylase", "assay_type": "biochemical", "details": "in words; no test data given"}, "[8]": {"tested_on": "mice", "test": "Acute toxicity (LD50) in mice", "assay_type": "in vivo", "details": "in words"}, "[9]": {"tested_on": "Bacillus sp. (ATCC 27860)", "test": "Antibiotic activity against Bacillus sp. (ATCC 27860)", "assay_type": "cell-based", "from_the_text": "(§1) The anti-microbial properties of the compound of the formula I and its salts are shown by the paper-disc agar-diffusion assay as described by Scannell et al. J. Antibiotics 25: 179-184 (1972). In this assay, Escherichia coli B as test organism, the minimal agar medium described by Scanell et al. was employed for the initial detection and during isolation of the antimetabolite. Similar to N^5 -hydroxy-L-arginine, the diameter of the inhibition zone was proportional to the logarithm of concentration of the compound of formula I within the range of 2 to about 100 λg/ml. A two-fold increase of the concentration of the compound of formula I increased the inhibition zone diameter by 3 mm and a […] solution gave a zone of about 36 mm.\n(§2) (ATCC 27860) as againt E. coli."}, "[10]": {"tested_on": "Escherichia coli B", "test": "Paper-disc agar-diffusion assay (Scannell et al.), Escherichia coli B as test organism, minimal agar medium", "assay_type": "cell-based", "from_the_text": "as §1, §2"}},
  "note": "Read-outs that look alike come from different tables or passages of the source.",
  "data": [
    {"smiles": "C[C@](N)(CCCNC(=N)N)C(=O)O", "values": [
      {"measurement": "LD50", "setting": "[1]; ip", "result": "> 1000", "unit": "mg/kg"},
      {"measurement": "LD50", "setting": "[1]; po", "result": "> 1000", "unit": "mg/kg"}
    ]},
    {"smiles": "CC(N)(CCCN)C(=O)O", "note": "(racemic) [D,L-2-methyl ornithine]", "values": [
      {"measurement": "suppression of spermidine production", "setting": "[2]", "result": "suppresses spermidine production"},
      {"measurement": "inhibition of ornithine decarboxylase", "setting": "[3]", "result": "inhibitor of ornithine decarboxylase"},
      {"measurement": "anti-fertility activity", "setting": "[4]", "result": "anti-fertility agent"}
    ]},
    {"smiles": "C[C@](N)(CCCN)C(=O)O", "note": "[L-2-methyl ornithine, 2-methyl-L-ornithine]", "values": [
      {"measurement": "suppression of spermidine production", "setting": "[5]", "result": "suppresses spermidine production"},
      {"measurement": "anti-fertility activity", "setting": "[6]", "result": "anti-fertility agent"},
      {"measurement": "inhibition of ornithine decarboxylase", "setting": "[7]", "result": "inhibitor of ornithine decarboxylase"}
    ]},
    {"smiles": "C[C@](N)(CCCNC(=N)N)C(=O)O", "note": "[compound of formula I, 2-methyl-L-arginine]", "values": [
      {"measurement": "toxicity to vertebrates", "setting": "[8]", "result": "relatively non-toxic"},
      {"measurement": "activity against Bacillus s.p.", "setting": "[9]; in words", "result": "active"},
      {"measurement": "level of activity against Bacillus sp. (ATCC 27860) compared with E. coli", "setting": "[9]; relative to E. coli", "result": "approximately the same level of activity"},
      {"measurement": "reversal of antibiotic activity against Escherichia coli", "setting": "[10]; by added amino acids", "result": "reversed by L-arginine, L-citrulline, L-ornithine and N^2 -acetyl-L-ornithine"},
      {"measurement": "activity against Escherichia coli B", "setting": "[10]; in words", "result": "active"},
      {"measurement": "increase of inhibition zone diameter on two-fold increase of concentration", "setting": "[10]; two-fold increase of the concentration, Escherichia coli B", "result": 3, "unit": "mm"}
    ]}
  ]
}
